The text below walks through data of PMC9184463, “Structural basis of ligand binding modes of human EAAT2” (Nature Communications, 2022).

What is called pKi is the Ki on a negative log10 scale, so that one unit is a factor of ten.

pKi: −log10 of the molar value.

The experiment concerns the target T1, hEAAT2 mutant S441G (Homo sapiens, UniProt P43004, S441G).
T1 construct: Strep Tag II (N); superfolder GFP (sfGFP) (N); expressed in transfected cells; host or cells: HEK293T
Description: whole-cell patch-clamp, hEAAT2 mutant S441G in HEK293T cells. The experiment is classed as cell-based. The settings on record: 0 mV; for WAY-213613-inhibited current, normalized (MEAN): S441G. On the procedure: Human embryonic kidney 293T (HEK293T) cells were cultured in Dulbecco’s Modified Eagle Medium (DMEM, Gibco) media supplemented with 15% (v/v) fetal bovine serum (FBS, PAN-Biotech) at 37 °C with 5% CO2. HEK293T cells were grown in the culture dishes (d = 3.5 cm) (Thermo Fisher Scientific) for 24 h and then 1 μg hEAAT2 wild-type and mutant plasmids for per dishes were used to transiently transfect HEK293T using 0.7 μg Lipofectamine 2000 Reagent (Thermo Fisher Scientific). Cells were analyzed using electrophysiological experiments between 24 and 40 h after transfection at room temperature (21–25 °C).
Electrophysiological experiments were performed as described previously with a minor modification. External buffer contained 140 mM NaCl, 2 mM MgCl2, 2 mM CaCl2, and 10 mM HEPES (pH = 7.4 with NaOH and osmolarity of ∼310 mosmol L^−1) and while internal pipette solution comprised of 130 mM NaSCN, 2 mM MgCl2, 10 mM EGTA, 10 mM HEPES (pH = 7.4 with NaOH and osmolarity of ∼310 mosmol L^−1) and 10 mM glutamate. 50 mM WAY-213613 stock solutions were prepared in dimethyl sulfoxide (DMSO), followed by dilutions to working concentrations with the above-mentioned external buffer. […] Whole cell patch-clamp experiment recordings were made from isolated GFP-positive HEK293T cells (hEAAT2 wild type and mutants). In all, 3–6 MΩ was used to fire a polished pipette (Sutter Instrument). […] Cells were immersed in the above-mentioned external buffer supplemented with a specified concentration of glutamate or WAY-213613. Glutamate-induced anion current, Na^+-dependent anion leak current and glutamate transport current or WAY-213613 inhibited anion leak currents were recorded using an EPC-10 amplifier (HEKA Electronic) at a 20 kHz sample rate with low pass filter at 5 kHz. All experiments were executed at 0 mV. After the cell current was stabilized, glutamate or WAY-213613 was sustained at the indicated concentrations from external dosing for at least 6 s. Subsequently, the cell was washed away with external buffer to start a new round of applications or end the experiment. The plateau currents were used for the following calculations. For analysis, the data was acquired by PatchMaster program (HEKA Electronic) at 5 s after recording. Nonlinear dose–response relationships were fitted into a Michaelis–Menten-like equation shown as below to obtain the apparent Km and Ki values in the presence of glutamate or WAY-213613.1 I/Imax=Km/i/C+Km/i In this equation, I represent the current at different glutamate or inhibitor concentrations, and Imax represents the maximal current at the saturating concentration of glutamate or inhibitor. [C] represents the concentration of glutamate or inhibitor. Km/i represents the apparent constant.

T1 sequence (P43004 whole entry S441G): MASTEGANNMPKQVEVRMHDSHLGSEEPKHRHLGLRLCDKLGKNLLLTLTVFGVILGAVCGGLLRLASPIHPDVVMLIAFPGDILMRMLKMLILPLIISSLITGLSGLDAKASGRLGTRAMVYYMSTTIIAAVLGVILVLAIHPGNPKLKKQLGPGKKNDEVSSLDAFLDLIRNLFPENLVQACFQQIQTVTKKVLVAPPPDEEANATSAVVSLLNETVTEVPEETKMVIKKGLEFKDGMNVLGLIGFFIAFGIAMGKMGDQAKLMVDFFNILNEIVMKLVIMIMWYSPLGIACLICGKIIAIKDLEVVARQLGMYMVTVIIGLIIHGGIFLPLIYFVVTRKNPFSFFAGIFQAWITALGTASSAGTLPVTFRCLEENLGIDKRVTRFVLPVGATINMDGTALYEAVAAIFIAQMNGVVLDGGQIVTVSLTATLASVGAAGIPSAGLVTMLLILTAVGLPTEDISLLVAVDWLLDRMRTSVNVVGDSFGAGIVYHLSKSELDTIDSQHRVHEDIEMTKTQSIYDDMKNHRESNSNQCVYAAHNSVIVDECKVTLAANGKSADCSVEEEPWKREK

For `NC(CC(=O)Nc1ccc(Oc2cc(F)c(F)cc2Br)cc1)C(=O)O` (centres unmarked) [WAY-213613], the “WAY-213613-inhibited current, normalized (MEAN)” value (0.03 μM WAY-213613, normalized to current at 30 μM) stood at 0.08476; the “WAY-213613-inhibited current, normalized (MEAN)” value (0.1 μM WAY-213613, normalized to current at 30 μM) is on record as 0.2697; the “WAY-213613-inhibited current, normalized (MEAN)” value (0.3 μM WAY-213613, normalized to current at 30 μM) is recorded as 0.5414; the “WAY-213613-inhibited current, normalized (MEAN)” value (1 μM WAY-213613, normalized to current at 30 μM) is recorded as 0.7785; the “WAY-213613-inhibited current, normalized (MEAN)” value (3 μM WAY-213613, normalized to current at 30 μM) is reported as 0.8947; the “WAY-213613-inhibited current, normalized (MEAN)” value (10 μM WAY-213613, normalized to current at 30 μM) is on record as 0.9736. For the same molecule, under “30 μM WAY-213613, normalization reference”, the “WAY-213613-inhibited current, normalized (MEAN)” value is listed as 1. Moreover, the pKi (S441G mutant, read-out: apparent Ki) was 6.59.
